Laboratory results published in ChEMBL document CHEMBL5465560, “Selectivity Literature for EUbOPEN Chemogenomic Library” (2024).

Columns and labels:
[1] = tested on: Proto-oncogene tyrosine-protein kinase receptor Ret (Homo sapiens), P07949 [V804M]; settings: at 10 µM
[2] = target: Serine/threonine-protein kinase N1 (Homo sapiens, UniProt Q16512); assay: Selectivity interaction (KinomeScan (DiscoverX)) EUB0001049a PKN1; settings: at 1 µM
[3] = target: Serine/threonine-protein kinase pim-1 (Homo sapiens, UniProt P11309); assay: Selectivity interaction (Ambit KINOMEscan and KiNATiv profiling in Jurkat cells) EUB0000090b PIM1; type: cell-based; settings: at 1 µM
Serine/threonine-protein kinase pim-1, sequence (P11309 whole entry, looked up): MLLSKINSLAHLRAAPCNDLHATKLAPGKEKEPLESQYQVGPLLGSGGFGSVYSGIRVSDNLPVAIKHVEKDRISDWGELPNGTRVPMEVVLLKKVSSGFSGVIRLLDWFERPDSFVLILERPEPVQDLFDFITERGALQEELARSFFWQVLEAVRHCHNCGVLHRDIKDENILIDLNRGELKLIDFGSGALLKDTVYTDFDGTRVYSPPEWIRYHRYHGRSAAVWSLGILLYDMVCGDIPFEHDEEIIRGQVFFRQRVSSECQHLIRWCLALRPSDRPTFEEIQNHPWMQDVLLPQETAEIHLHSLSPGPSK

[4] = target: T1, Serine/threonine-protein kinase LATS2 (Homo sapiens) (UniProt Q9NRM7); assay: Selectivity interaction (ActivX KiNativ screen (kinase selectivity in THP-1 cell lysates)) EUB0000639a LATS2; type: subcellular; settings: lysate
T1 sequence (whole entry): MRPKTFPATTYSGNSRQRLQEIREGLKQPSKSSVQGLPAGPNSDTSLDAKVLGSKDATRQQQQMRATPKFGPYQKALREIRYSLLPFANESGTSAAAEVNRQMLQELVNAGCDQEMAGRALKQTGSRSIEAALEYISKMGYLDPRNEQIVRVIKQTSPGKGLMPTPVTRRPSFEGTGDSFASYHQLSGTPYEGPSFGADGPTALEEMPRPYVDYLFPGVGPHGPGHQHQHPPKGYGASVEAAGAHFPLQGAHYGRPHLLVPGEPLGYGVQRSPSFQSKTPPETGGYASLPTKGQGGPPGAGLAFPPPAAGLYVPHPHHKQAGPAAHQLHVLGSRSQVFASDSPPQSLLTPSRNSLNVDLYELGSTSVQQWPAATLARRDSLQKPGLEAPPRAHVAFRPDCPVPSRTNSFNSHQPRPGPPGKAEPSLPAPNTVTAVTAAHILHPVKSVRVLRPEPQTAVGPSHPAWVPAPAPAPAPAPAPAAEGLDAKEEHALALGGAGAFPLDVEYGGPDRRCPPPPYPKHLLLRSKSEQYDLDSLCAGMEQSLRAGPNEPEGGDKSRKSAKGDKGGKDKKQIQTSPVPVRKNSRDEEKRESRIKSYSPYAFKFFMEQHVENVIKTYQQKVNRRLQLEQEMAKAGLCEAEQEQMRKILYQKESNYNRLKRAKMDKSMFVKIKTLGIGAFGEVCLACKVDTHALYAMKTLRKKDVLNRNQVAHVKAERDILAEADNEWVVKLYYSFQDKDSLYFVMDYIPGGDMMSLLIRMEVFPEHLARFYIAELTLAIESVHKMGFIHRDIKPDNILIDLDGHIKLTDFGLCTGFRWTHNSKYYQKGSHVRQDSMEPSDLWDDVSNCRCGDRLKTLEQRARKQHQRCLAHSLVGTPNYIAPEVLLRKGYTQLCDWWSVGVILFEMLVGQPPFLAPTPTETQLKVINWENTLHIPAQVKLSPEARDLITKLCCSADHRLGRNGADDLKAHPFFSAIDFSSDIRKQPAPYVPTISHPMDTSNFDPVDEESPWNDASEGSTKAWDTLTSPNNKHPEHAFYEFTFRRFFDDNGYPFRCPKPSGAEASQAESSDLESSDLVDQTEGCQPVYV

[5] = target: Fibroblast growth factor receptor 3 (Homo sapiens, UniProt P22607); assay: Selectivity interaction (Kinase panel (33PanQinase(R) Activity Assay)) EUB0000877a FGFR3
[6] = target: MAP kinase-interacting serine/threonine-protein kinase 2 (Homo sapiens, UniProt Q9HBH9); assay: Selectivity interaction (Kinase panel (33PanQinase(R) Activity Assay)) EUB0000877a MKNK2
[7] = target: T2, Serine/threonine-protein kinase Nek9 (Homo sapiens) (UniProt Q8TD19); assay: Selectivity interaction (KinomeScan (DiscoverX)) EUB0000695a NEK9; settings: at 100 nM
T2 sequence (whole entry): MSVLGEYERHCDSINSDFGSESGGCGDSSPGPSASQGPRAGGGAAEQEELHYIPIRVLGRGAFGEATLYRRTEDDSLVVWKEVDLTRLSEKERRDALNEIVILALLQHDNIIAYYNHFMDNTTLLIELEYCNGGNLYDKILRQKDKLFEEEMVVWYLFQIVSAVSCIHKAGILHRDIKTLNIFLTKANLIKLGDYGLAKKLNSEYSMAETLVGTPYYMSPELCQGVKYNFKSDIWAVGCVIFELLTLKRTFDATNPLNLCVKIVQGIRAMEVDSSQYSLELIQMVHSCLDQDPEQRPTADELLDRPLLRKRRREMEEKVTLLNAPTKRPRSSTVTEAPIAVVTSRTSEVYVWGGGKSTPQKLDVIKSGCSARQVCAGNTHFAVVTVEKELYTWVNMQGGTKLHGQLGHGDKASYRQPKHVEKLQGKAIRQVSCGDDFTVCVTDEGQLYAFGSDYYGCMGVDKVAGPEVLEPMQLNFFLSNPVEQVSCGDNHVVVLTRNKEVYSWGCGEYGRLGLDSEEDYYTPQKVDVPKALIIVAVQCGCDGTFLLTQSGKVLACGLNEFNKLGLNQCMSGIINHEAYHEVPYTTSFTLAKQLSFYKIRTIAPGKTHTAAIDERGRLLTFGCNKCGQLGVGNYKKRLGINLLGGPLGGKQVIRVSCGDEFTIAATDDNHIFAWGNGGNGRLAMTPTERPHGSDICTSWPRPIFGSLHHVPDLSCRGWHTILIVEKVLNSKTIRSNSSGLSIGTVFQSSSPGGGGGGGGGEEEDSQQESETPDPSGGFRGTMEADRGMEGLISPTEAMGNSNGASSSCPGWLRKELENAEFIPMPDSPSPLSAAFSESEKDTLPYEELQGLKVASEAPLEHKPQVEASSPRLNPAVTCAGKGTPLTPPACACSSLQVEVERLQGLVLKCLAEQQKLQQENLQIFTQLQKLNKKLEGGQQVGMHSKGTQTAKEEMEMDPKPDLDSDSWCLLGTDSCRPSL

[8] = target: Proto-oncogene tyrosine-protein kinase Src (Homo sapiens, UniProt P12931); assay: Selectivity interaction (ProQinase) EUB0000171b SRC
Proto-oncogene tyrosine-protein kinase Src, sequence (P12931 2-536 limits assumed): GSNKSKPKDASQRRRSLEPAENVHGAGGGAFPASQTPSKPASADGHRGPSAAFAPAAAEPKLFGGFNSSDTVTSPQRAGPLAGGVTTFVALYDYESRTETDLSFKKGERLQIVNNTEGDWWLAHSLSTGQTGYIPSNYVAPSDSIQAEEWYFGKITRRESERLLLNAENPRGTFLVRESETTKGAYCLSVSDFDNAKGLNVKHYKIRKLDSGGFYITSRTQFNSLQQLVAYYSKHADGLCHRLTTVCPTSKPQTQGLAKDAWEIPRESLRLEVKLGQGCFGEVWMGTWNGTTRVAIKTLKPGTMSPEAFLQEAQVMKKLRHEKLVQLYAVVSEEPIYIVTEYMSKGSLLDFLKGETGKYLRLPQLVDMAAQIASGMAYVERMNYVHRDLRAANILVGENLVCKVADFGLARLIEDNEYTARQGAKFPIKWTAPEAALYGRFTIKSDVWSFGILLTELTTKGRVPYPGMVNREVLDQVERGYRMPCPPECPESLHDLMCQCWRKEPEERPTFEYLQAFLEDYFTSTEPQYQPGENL

[9] = target: Vascular endothelial growth factor receptor 1 (Homo sapiens) (UniProt P17948); assay: Selectivity interaction (KinomeScan (DiscoverX)) EUB0000655a FLT1; settings: at 10 µM
[10] = target: Tyrosine-protein kinase Fyn (Homo sapiens) (UniProt P06241); assay: Selectivity interaction (ActivX KiNativ screen (ex vivo kinase selectivity in human PBMCs)) EUB0001619a FYN; type: cell-based; settings: PBMC, at 1 µM
Tyrosine-protein kinase Fyn (Homo sapiens), sequence (P06241 2-537 limits assumed): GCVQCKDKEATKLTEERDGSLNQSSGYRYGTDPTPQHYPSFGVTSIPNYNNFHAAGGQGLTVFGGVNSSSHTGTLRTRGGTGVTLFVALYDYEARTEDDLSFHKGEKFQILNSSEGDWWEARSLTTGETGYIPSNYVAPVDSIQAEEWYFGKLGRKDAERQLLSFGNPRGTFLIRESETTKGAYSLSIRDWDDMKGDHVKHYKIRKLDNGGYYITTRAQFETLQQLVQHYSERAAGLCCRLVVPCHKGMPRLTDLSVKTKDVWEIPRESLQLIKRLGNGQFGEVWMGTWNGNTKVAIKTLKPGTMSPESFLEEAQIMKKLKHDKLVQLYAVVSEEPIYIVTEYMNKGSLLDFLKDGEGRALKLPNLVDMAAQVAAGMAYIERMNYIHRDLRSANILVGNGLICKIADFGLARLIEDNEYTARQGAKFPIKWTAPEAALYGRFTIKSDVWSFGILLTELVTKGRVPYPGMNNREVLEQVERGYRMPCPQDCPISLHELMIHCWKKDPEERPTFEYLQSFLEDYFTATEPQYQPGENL

[11] = target: High affinity nerve growth factor receptor (Homo sapiens, UniProt P04629); assay: Selectivity interaction (KinomeScan (DiscoverX)) EUB0000607a NTRK1; settings: at 10 µM
[12] = target: Rho-associated protein kinase 2 (Homo sapiens, UniProt O75116); assay: Selectivity interaction (KinomeScan (DiscoverX)) EUB0000666a ROCK2; settings: at 10 µM
Rho-associated protein kinase 2, sequence (O75116 whole entry, looked up): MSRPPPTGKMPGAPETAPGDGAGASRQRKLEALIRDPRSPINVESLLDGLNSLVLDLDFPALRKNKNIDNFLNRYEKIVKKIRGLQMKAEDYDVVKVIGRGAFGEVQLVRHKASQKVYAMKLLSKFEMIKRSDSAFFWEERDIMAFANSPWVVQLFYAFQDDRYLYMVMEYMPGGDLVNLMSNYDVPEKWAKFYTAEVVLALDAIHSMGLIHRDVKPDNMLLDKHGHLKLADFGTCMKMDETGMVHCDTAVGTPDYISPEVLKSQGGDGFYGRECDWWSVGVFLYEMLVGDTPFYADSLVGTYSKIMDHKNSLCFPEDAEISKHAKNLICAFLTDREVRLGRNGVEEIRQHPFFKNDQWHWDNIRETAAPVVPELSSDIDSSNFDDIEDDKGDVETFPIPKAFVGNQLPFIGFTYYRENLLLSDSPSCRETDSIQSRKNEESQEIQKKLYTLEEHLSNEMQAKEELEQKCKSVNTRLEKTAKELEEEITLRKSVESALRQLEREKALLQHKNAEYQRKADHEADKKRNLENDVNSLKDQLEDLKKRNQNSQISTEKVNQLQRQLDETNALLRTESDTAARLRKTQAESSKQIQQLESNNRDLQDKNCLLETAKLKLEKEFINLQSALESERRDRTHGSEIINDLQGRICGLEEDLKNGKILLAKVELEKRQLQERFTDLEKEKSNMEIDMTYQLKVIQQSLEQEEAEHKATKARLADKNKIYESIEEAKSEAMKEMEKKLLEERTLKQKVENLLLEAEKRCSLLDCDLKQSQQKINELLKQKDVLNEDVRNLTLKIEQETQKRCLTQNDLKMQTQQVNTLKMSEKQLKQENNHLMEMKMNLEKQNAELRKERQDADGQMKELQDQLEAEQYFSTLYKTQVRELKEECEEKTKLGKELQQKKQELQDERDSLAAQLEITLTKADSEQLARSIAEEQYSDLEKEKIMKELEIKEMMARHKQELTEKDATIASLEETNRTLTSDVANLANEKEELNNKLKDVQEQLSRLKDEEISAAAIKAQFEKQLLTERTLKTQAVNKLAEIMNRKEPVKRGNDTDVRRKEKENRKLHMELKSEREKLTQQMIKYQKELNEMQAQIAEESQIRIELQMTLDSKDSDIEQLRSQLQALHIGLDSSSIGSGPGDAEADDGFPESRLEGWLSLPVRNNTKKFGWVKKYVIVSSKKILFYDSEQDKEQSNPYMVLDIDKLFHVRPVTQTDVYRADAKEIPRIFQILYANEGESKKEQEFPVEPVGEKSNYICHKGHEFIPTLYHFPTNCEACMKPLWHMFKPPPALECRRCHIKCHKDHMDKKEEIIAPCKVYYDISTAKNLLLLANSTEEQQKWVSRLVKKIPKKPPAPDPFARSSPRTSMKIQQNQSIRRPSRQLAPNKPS

Proto-oncogene tyrosine-protein kinase receptor Ret (Homo sapiens), P07949 [V804M], sequence (P07949 whole entry V804M): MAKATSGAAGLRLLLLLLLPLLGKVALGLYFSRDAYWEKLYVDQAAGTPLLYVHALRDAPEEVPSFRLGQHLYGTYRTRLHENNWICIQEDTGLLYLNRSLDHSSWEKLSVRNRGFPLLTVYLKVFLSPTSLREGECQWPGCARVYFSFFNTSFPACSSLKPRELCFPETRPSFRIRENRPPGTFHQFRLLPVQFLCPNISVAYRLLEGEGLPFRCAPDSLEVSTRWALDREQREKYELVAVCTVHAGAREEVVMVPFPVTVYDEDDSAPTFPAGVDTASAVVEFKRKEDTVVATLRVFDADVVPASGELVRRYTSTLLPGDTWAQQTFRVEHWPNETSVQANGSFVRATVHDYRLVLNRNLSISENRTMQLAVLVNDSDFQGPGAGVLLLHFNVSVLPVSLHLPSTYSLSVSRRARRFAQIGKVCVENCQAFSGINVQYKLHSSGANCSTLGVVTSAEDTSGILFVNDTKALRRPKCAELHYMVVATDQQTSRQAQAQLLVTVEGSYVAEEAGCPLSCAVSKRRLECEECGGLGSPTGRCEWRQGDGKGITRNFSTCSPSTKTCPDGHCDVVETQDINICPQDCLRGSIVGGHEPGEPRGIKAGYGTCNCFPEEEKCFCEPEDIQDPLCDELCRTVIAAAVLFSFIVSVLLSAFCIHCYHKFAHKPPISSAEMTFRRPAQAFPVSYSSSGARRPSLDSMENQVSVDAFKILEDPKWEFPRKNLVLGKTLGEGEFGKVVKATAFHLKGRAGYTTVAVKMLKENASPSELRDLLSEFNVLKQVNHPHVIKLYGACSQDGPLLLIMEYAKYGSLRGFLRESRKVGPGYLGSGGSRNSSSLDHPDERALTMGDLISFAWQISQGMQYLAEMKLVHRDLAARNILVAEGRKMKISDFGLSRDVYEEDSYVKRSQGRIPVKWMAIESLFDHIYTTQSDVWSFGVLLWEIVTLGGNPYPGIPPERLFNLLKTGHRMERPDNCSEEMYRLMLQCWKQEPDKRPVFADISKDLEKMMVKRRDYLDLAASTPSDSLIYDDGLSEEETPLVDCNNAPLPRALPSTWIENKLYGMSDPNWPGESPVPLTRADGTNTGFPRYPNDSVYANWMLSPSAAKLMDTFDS
Serine/threonine-protein kinase N1, sequence (Q16512 2-942 limits assumed): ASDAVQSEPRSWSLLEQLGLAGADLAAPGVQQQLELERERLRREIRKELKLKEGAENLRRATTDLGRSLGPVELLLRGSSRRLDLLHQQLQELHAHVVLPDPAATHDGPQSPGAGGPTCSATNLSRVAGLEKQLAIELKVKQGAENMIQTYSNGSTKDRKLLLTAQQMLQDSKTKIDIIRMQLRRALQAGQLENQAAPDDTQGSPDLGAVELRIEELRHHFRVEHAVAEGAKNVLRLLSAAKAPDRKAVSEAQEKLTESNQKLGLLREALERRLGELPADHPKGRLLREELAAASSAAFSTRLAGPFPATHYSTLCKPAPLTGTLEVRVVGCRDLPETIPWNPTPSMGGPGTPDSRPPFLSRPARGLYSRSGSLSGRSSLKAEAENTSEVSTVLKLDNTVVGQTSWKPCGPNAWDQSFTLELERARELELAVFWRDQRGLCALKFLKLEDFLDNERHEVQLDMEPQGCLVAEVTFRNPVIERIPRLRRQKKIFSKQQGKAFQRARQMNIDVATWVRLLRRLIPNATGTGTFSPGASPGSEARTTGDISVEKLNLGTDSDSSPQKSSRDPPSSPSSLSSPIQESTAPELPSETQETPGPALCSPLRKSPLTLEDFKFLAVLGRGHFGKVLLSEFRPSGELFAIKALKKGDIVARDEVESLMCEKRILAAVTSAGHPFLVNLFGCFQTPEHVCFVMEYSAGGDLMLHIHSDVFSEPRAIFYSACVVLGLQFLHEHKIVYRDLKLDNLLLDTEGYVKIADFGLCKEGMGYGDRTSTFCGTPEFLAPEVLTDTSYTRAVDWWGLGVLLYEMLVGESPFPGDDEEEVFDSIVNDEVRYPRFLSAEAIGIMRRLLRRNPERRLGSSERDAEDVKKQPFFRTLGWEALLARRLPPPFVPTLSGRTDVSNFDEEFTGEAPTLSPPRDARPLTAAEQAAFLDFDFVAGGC

Cc1cc([C@@H](C)Nc2ccccc2C(=O)O)c2nc(N3CCOCC3)cc(=O)n2c1 [AZD-6482]
% of control [1]: 100%

COc1cc(Nc2nc(C)cc(-c3cnn4nc(OC)ccc34)n2)cc(C(F)(F)F)c1
% of control [2]: 94%

CN(C)C/C=C/C(=O)Nc1ccc(C(=O)N2CCCC(Nc3ncc(Cl)c(-c4c[nH]c5ccccc45)n3)C2)cc1 (configuration not stated)
% of control [3]: 100%

CC[C@@H]1[C@H](F)C(=O)N[C@@H]1COc1nccc2cc(C(N)=O)c(OC)cc12 [ZIMLOVISERTIB]
% of inhibition ([4]; at 0.01 µM): -10.4% | % of inhibition ([4]; at 0.04 µM): -16% | % of inhibition ([4]; at 0.2 µM): 2.1% | % of inhibition ([4]; at 1 µM): 32.5% | % of inhibition ([4]; at 5 µM): 85%

CCC(=O)N1CC[C@H](Nc2ncnc3c2CN(c2cnc(OC)c(C(F)(F)F)c2)CC3)C1 [LENIOLISIB]
IC50 [5]: > 10 µM | IC50 [6]: > 10 µM

Cc1cc(F)c(C(=O)Nc2cccc(-c3nncn3C(C)C)n2)cc1-n1cnc(C2CC2)c1
% of control [7]: 100%

C=CC(=O)Nc1cccc(C(=O)Nc2ccc(Nc3cc(-c4[nH]c(SC)nc4C)ccn3)cc2)c1
% of control ([8]; at 1 µM): 98% | % of control ([8]; at 5 µM): 86%

CN(C)CCOc1ccc(-c2nc(-c3ccncc3)c(-c3ccc4c(c3)CC/C4=N\O)[nH]2)cc1
% of control [9]: 79%

N#Cc1cccc(-c2c[nH]c3ncnc(N4CCOCC4)c23)c1
% of inhibition [10]: -9%

CNC(=O)Nc1ccc(-c2nc(N3CC4CCC(C3)O4)c3cnn(C4CCC5(CC4)OCCO5)c3n2)cc1
% of control [11]: 100%

O=C(NOC[C@H](O)CO)c1ccc(F)c(F)c1Nc1ccc(I)cc1F
% of control [12]: 100%
